Assay results reported in patent EP4682145A1, “BENZOHETEROCYCLIC COMPOUND, AND PREPARATION METHOD THEREFOR AND USE THEREOF” (Cascade Pharmaceuticals, Inc., priority 2023, dated 2024).

Molecular target: T1, human FFAR1 (GPR40) (Homo sapiens, UniProt O14842)
T1 construct: Flag; expressed in transfected cells; host or cells: HEK293T
Assay: NFAT-RE-based reporter gene activity assay (Dual-Glo luciferase) for GPR40 agonistic activity in co-transfected HEK293T cells
Format: cell-based
Details: 4-hour treatment; for Efficacy (%): class symbols
Outline: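 HEK293T cells co-transfected with human FFAR1, NFAT-RE firefly luciferase and TK-Renilla plasmids; 24 h later treated 4 h with 10 half-log compound dilutions from 1 µM. Firefly/Renilla ratio normalised to DMSO; EC50 from four-parameter fit.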

T1 sequence (O14842 whole entry): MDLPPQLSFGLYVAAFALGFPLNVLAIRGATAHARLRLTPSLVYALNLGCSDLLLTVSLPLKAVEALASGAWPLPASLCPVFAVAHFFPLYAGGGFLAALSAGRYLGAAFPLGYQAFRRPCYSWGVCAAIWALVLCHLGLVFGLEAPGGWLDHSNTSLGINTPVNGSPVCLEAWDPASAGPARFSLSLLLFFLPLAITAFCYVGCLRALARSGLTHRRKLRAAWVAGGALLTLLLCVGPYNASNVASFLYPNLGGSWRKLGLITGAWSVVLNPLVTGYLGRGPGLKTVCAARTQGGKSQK

Row | SMILES | EC50 [nM] | Efficacy (%)
1 | COc1cccc(N2CCC(c3oc4cc(C(CC(=O)O)C5CC5)ccc4c3-c3nnc(C45CC6CC(CC(C6)C4)C5)o3)CC2)c1 (stereo not drawn) [Compound 139] | 100 to 500 | †† (150 ≥ Efficacy (%) > 100)
2 | COc1cccc(N2CCC(c3oc4cc(C(CC(=O)O)C5CC5)ccc4c3-c3cccc(NC(=O)CC(C)(C)C)n3)CC2)c1 (stereo not drawn) [Compound 149] | 100 to 500 | †† (150 ≥ Efficacy (%) > 100)
3 | COc1ccc(-c2c(C3CCN(c4cc(OC)ccc4F)CC3)oc3cc([C@@H](CC(=O)O)C4CC4)ccc23)cc1 [Compound 179] | 100 to 500 | ††† (Efficacy (%) > 150)
4 | COc1cccc(N2CCC(c3oc4cc(C(CC(=O)O)C5CC5)ccc4c3C(=O)Nc3ncns3)CC2)c1 (stereo not drawn) [Compound 293] | 100 to 500 | †† (150 ≥ Efficacy (%) > 100)
5 | COc1cccc(N2CCC(c3oc4cc([C@@H](CC(=O)O)C5CC5)ccc4c3C(=O)Nc3cc(C)ccc3OC)CC2)c1 [Compound 272] | 10 to 100 | ††† (Efficacy (%) > 150)
6 | COc1ccc(F)c(N2CCC(c3oc4cc(C(CC(=O)O)C5CC5)ccc4c3CC(C)=O)CC2)c1 (stereo not drawn) [Compound 395] | 100 to 500 | † (100 ≥ Efficacy (%) > 50)
7 | COc1cccc(N2CCC(c3oc4cc(C(CC(=O)O)C5CC5)ccc4c3C(=O)Nc3c(F)cccc3F)CC2)c1 (stereo not drawn) [Compound 256] | 100 to 500 | ††† (Efficacy (%) > 150)
8 | COc1cccc(N2CCC(c3oc4cc([C@@H](CC(=O)O)C5CC5)ccc4c3C(=O)N(C)c3cc([N+](=O)[O-])ccc3Cl)CC2)c1 [Compound 274] | 100 to 500 | †† (150 ≥ Efficacy (%) > 100)
9 | COc1cccc(N2CCC(c3oc4cc([C@@H](CC(=O)O)C5CC5)ccc4c3C(=O)Nc3cc(C)ccc3C)CC2)c1 [Compound 269] | 10 to 100 | ††† (Efficacy (%) > 150)
10 | COc1cccc(N2CCC(c3oc4cc([C@@H](CC(=O)O)C5CC5)ccc4c3C(=O)Nc3ccccc3-c3ccccc3)CC2)c1 [Compound 241] | 100 to 500 | †† (150 ≥ Efficacy (%) > 100)
11 | COc1cccc(N2CCC(c3oc4cc([C@@H](CC(=O)O)C5CC5)ccc4c3C(OCC(C)C)c3ccccc3C)CC2)c1 (stereo partly drawn) [Compound 429] | 100 to 500 | ††† (Efficacy (%) > 150)
12 | CCCCC(c1ccccc1)c1c(C2CCN(c3cccc(OC)c3)CC2)oc2cc([C@@H](CC(=O)O)C3CC3)ccc12 (stereo partly drawn) [Compound 386] | 10 to 100 | †† (150 ≥ Efficacy (%) > 100)
13 | COc1cccc(N2CCC(c3oc4cc([C@@H](CC(=O)O)C5CC5)ccc4c3C(=O)Nc3cc(C4CC4)ccc3Cl)CC2)c1 [Compound 279] | > 500 | †† (150 ≥ Efficacy (%) > 100)
14 | COc1ccnc(N2CCC(c3oc4cc(C(CC(=O)O)C5CC5)ccc4c3-c3ccc(C(C)(C)C)cc3)CC2)c1 (stereo not drawn) [Compound 32] | 100 to 500 | †† (150 ≥ Efficacy (%) > 100)
15 | CCc1ccc(Cl)c(NC(=O)c2c(C3CCN(c4cccc(OC)c4)CC3)oc3cc([C@@H](CC(=O)O)C4CC4)ccc23)c1 [Compound 278] | < 10 | ††††
16 | COc1cccc(N2CCC(c3oc4cc([C@@H](CC(=O)O)C5CC5)ccc4c3-c3ncc(C(C)(C)C)s3)CC2)c1 [Compound 113] | ≤ 10 | †† (150 ≥ Efficacy (%) > 100)
17 | COc1cccc(N2CCC(c3oc4cc(C(CC(=O)O)C5CC5)ccc4c3-c3cc(C(C)(C)C)on3)CC2)c1 (stereo not drawn) [Compound 114] | 10 to 100 | †† (150 ≥ Efficacy (%) > 100)
18 | COc1cccc(N2CCC(c3oc4cc([C@@H](CC(=O)O)C5CC5)ccc4c3C(C)OCC[C@@H](C)CCC=C(C)C)CC2)c1 (stereo partly drawn) [Compound 415] | > 500 | ††† (Efficacy (%) > 150)
19 | CC(C)(C)n1cc(-c2c(C3CCN(c4ccccc4)CC3)oc3cc(C(CC(=O)O)C4CC4)ccc23)cn1 (stereo not drawn) [Compound 39] | 100 to 500 | ††† (Efficacy (%) > 150)
20 | COc1ccc(F)c(N2CCC(c3oc4cc([C@H](C5CC5)C(C)C(=O)O)ccc4c3-c3cccc(C(C)(C)C)c3)CC2)c1 (stereo partly drawn) [Compound 217] | 10 to 100 | †† (150 ≥ Efficacy (%) > 100)
21 | COc1cccc(N2CCC(c3oc4cc([C@@H](CC(=O)O)C5CC5)ccc4c3C(C)OC)CC2)c1 (stereo partly drawn) [Compound 406] | 100 to 500 | ††† (Efficacy (%) > 150)

Row | SMILES | EC50 [nM] | Efficacy (%)
22 | COc1cccc(N2CCC(c3oc4cc([C@@H](CC(=O)O)C5CC5)ccc4c3-c3ccc4ccccc4n3)CC2)c1 [Compound 154] | 100 to 500 | ††† (Efficacy (%) > 150)
23 | CNC(=O)c1ccc(OC)cc1N1CCC(c2oc3cc(C(CC(=O)O)C4CC4)ccc3c2-c2cnn(C(C)(C)C)c2)CC1 (stereo not drawn) [Compound 91] | 100 to 500 | † (100 ≥ Efficacy (%) > 50)
24 | COc1ccc(F)c(N2CCC(c3oc4cc([C@@H](CC(=O)O)C5CC5)ccc4c3C(=O)Nc3cc(F)ccc3Br)CC2)c1 [Compound 342] | ≤ 10 | †† (150 ≥ Efficacy (%) > 100)
25 | COc1cccc(N2CCC(c3oc4cc([C@@H](CC(=O)O)C5CC5)ccc4c3C(=O)Nc3cc(F)ccc3F)CC2)c1 [Compound 257] | ≤ 10 | ††† (Efficacy (%) > 150)
26 | COc1cccc(N2CCC(c3oc4cc([C@@H](CC(=O)O)C5CC5)ccc4c3C(C)OCCC(C)(C)C)CC2)c1 (stereo partly drawn) [Compound 412] | 100 to 500 | ††† (Efficacy (%) > 150)
27 | COc1cccc(N2CCC(c3oc4cc([C@H](C5CC5)C(C)(C)C(N)=O)ccc4c3-c3cnn(C(C)(C)C)c3)CC2)c1 [Compound 71] | 100 to 500 | †† (150 ≥ Efficacy (%) > 100)
28 | COc1cccc(N2CCC(c3oc4cc(C(CC(=O)O)C5CC5)ccc4c3C(=O)NC3CCC(C)(C)CC3)CC2)c1 (stereo not drawn) [Compound 348] | 100 to 500 | †† (150 ≥ Efficacy (%) > 100)
29 | COc1cccc(N2CCC(c3oc4cc([C@@H](CC(=O)O)C5CC5)ccc4c3C(=O)Nc3cc(C#N)ccc3Cl)CC2)c1 [Compound 282] | 10 to 100 | †† (150 ≥ Efficacy (%) > 100)
30 | COc1cccc(N2CCC(c3oc4cc([C@@H](CC(=O)O)C5CC5)ccc4c3CC=C(C)C)CC2)c1 [Compound 374] | 10 to 100 | †† (150 ≥ Efficacy (%) > 100)
31 | COc1ccc(F)c(N2CCC(c3oc4cc([C@@H](CC(=O)O)C5CC5)ccc4c3CCCC3CC3)CC2)c1 [Compound 391] | 100 to 500 | †† (150 ≥ Efficacy (%) > 100)
32 | COc1cccc(N2CCC(c3oc4cc([C@@H](CC(=O)O)C5CC5)ccc4c3-c3ncc(C(C)C)s3)CC2)c1 [Compound 112] | 10 to 100 | †† (150 ≥ Efficacy (%) > 100)
33 | COc1ccc(F)c(N2CCC(c3oc4cc([C@@H](CC(=O)O)C5CC5)ccc4c3C(=O)Nc3cc(Cl)ccc3F)CC2)c1 [Compound 338] | 10 to 100 | †† (150 ≥ Efficacy (%) > 100)
34 | COc1cccc(N2CCC(c3oc4cc([C@@H](CC(=O)O)C5CC5)ccc4c3C(=O)Nc3cc(N4CCCCC4)ccc3Cl)CC2)c1 [Compound 284] | ≤ 10 | †† (150 ≥ Efficacy (%) > 100)
35 | COc1ccc(F)c(N2CCC(c3oc4cc(C(CC(=O)O)C5CC5)ccc4c3-c3cccc(-n4cccn4)c3)CC2)c1 (stereo not drawn) [Compound 193] | 100 to 500 | †† (150 ≥ Efficacy (%) > 100)
36 | CC(C)(C)c1cccc(-c2c(C3CCN(c4cccc(C(F)(F)F)c4)CC3)oc3cc(C(CC(=O)O)C4CC4)ccc23)c1 (stereo not drawn) [Compound 20] | 100 to 500 | †† (150 ≥ Efficacy (%) > 100)
37 | COc1ccc(F)c(N2CCC(c3oc4cc(C(C)CC(=O)O)ccc4c3-c3cccc(C(C)(C)C)c3)CC2)c1 (stereo not drawn) [Compound 232] | 100 to 500 | † (100 ≥ Efficacy (%) > 50)
38 | COc1ccc(F)c(N2CCC(c3oc4cc(C(CC(=O)O)C5CC5)ccc4c3C(=O)Nc3cccc(C(C)(C)C)c3)CC2)c1 (stereo not drawn) [Compound 316] | 100 to 500 | †† (150 ≥ Efficacy (%) > 100)
39 | COc1cccc(N2CCC(c3oc4cc([C@@H](CC(=O)O)C5CC5)ccc4c3C(=O)Nc3cccc(C)c3)CC2)c1F [Compound 325] | 100 to 500 | †† (150 ≥ Efficacy (%) > 100)
40 | COc1cccc(-c2c(C3CCN(c4ccc5c(c4)OCO5)CC3)oc3cc(C(CC(=O)O)C4CC4)ccc23)c1 (stereo not drawn) [Compound 211] | 100 to 500 | ††† (Efficacy (%) > 150)
41 | COc1cccc(N2CCC(c3oc4cc([C@@H](CC(=O)O)C5CC5)ccc4c3C(C)CCC(C)C)CC2)c1 (stereo partly drawn) [Compound 385] | 10 to 100 | †† (150 ≥ Efficacy (%) > 100)
42 | COc1ccc(F)c(N2CCC(c3oc4cc(C(CC(=O)O)C5CC5)ccc4c3-c3cccc(C(F)(F)F)c3)CC2)c1 (stereo not drawn) [Compound 172] | 100 to 500 | † (100 ≥ Efficacy (%) > 50)
